# In patent US11999964B2, “Synthetic mammalian signaling circuits for robust cell population control” (California Institute of Technology, priority 2020, dated 2024):
# Tested on: cheaters from the negative feedback condition
# Assay: AP1903 killing of cheaters from the negative feedback condition
# Format: cell-based, Hamster
# Details: 50 nM AP1903, two days, even in the presence of NAA
# Source text: FIGS. 12A-12C depict non-limiting exemplary data showing the paradoxical circuit allows mutationally robust population control. (FIG. 12A) Cell lines evolved under paradoxical conditions are phenotypically different from cheaters evolved under negative feedback. Each dot represents one culture. Cells evolved under the negative feedback conditions form a tight cluster, which is fitted with a 2-D gaussian to show the 95 percentile (orange dashed ellipse). […] (FIG. 12B) Under paradoxical, but not negative feedback, conditions, mutations that reduce auxin sensing lead to apoptosis in cheaters (red inhibitory arrow), preventing unregulated growth and mutational escape. […] Cells were incubated with different levels of NAA for 6 hours, and then 50 nM of AP1903 was added (except in controls) for another two days. Confluencies were measured and normalized to the no AP1903 control (n=3).
smiles,measurement,value
CC[C@H](C(=O)N1CCCC[C@H]1C(=O)O[C@H](CCc1ccc(OC)c(OC)c1)c1cccc(OCC(=O)NCCNC(=O)COc2cccc([C@@H](CCc3ccc(OC)c(OC)c3)OC(=O)[C@@H]3CCCCN3C(=O)[C@@H](CC)c3cc(OC)c(OC)c(OC)c3)c2)c1)c1cc(OC)c(OC)c(OC)c1 [AP1903],Effect of iCasp9 activation by AP1903 on cheaters,kills cheaters
